Experimental data from patent US20250154138A1, “Small Molecule IL-17A Modulators” (BeiGene, Ltd., priority 2022, published 2025).

Legend:
[1] = target: human IL-17A / human IL-17RA (Homo sapiens (Human), UniProt Q16552); assay: Human IL-17A biochemical assay (HTRF, blocking of IL-17A binding to IL-17RA); details: 0.4 nM IL-17A, 0.3 nM IL-17RA, max compound concentration 10 uM
Procedure, shortened: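 0.4 nM hIL-17A + cpd (10 uM top, 2.7x, 10 pt), 3 h RT, HEPES pH 7.5 buffer w/ BSA, DTT, Tween 20; + 0.3 nM hIL-17RA 1 h RT; Tb/XL665 Abs 1 h; HTRF 620/665 ratio; 4PL IC50.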

[2] = test system: IL-17-induced GROα secretion from HT-29 cells; assay: GROα release assay in human colorectal adenocarcinoma epithelial cell (HT-29, ELISA); assay type: cell-based; details: Homo sapiens, HT-29, 48 h, 10 ng/mL IL-17A, highest concentration 10 μM, read-out: Cellular assay HT29 cell/CXCL1 IC50
Procedure, shortened: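 HT-29 cells were exposed 48 h at 37°C to IL-17A (final 10 ng/mL) preincubated 15 min with compound (4-fold dilutions, top 10 μM). Secreted GROα was quantified by ELISA against a standard curve, and IC50 obtained by four-parameter fitting.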

Chain of human IL-17A / human IL-17RA (Q16552 24-155): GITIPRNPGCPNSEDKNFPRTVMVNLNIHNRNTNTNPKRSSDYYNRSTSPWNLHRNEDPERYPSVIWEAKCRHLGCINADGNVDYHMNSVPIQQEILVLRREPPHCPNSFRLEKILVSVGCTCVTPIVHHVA

SMILES | IC50 [1] [nM] | IC50 [2] [nM]
CC(C)[C@@H]1CN(C2(C(=O)NCc3ccccn3)Cc3ccc(NC(=O)[C@@H](NC(=O)c4ccnn4C)C4CCCCC4)cc3C2)C(=O)N1 (stereo partly drawn) [Example 163, N-((1S)-1-cyclohexyl-2-((2-((R)-4-isopropyl-2-oxoimidazolidin-1-yl)-2-((pyridin-2-ylmethyl)carbamoyl)-2,3-dihydro-1H-inden-5-yl)amino)-2-oxoethyl)-1-methyl-1H-pyrazole-5-carboxamide] | 19 | 38.8
CNC(=O)C1(N2CC3(CC3)CNC2=O)Cc2ccc(NC(=O)[C@@H](NC(=O)c3ccnn3C3CC(O)C3)C3CCCCC3)cc2C1 (stereo partly drawn) [Example 132, N-((1S)-1-cyclohexyl-2-((2-(methylcarbamoyl)-2-(6-oxo-5,7-diazaspiro[2.5]octan-5-yl)-2,3-dihydro-1H-inden-5-yl)amino)-2-oxoethyl)-1-(3-hydroxycyclobutyl)-1H-pyrazole-5-carboxamide] | 66 | 178
CNC(=O)C1(N2C[C@@H](Cc3ccccn3)NC2=O)Cc2ccc(NC(=O)[C@@H](NC(=O)c3ccnn3C)C3CCCCC3)cc2C1 (stereo partly drawn) [Example 43, N-((1S)-1-cyclohexyl-2-((2-(methylcarbamoyl)-2-((R)-2-oxo-4-(pyridin-2-ylmethyl)imidazolidin-1-yl)-2,3-dihydro-1H-inden-5-yl)amino)-2-oxoethyl)-1-methyl-1H-pyrazole-5-carboxamide] | 1460 | 2380
CNC(=O)C1(N2C[C@@H](Cc3cccs3)NC2=O)Cc2ccc(NC(=O)[C@@H](NC(=O)c3ccnn3C)C3CCCCC3)cc2C1 (stereo partly drawn) [Example 57, N-((1S)-1-cyclohexyl-2-((2-(methylcarbamoyl)-2-((R)-2-oxo-4-(thiophen-2-ylmethyl)imidazolidin-1-yl)-2,3-dihydro-1H-inden-5-yl)amino)-2-oxoethyl)-1-methyl-1H-pyrazole-5-carboxamide] | 334 | 2150
CC1CN(C2Cc3ccc(NC(=O)[C@@H](NC(=O)c4ccnn4C)C4CCCCC4)cc3C2)C(=O)N1 (stereo partly drawn) [Example 3, N-((1S)-1-cyclohexyl-2-((2-(4-methyl-2-oxoimidazolidin-1-yl)-2,3-dihydro-1H-inden-5-yl)amino)-2-oxoethyl)-1-methyl-1H-pyrazole-5-carboxamide] | 3190 | 8430
CC(C)[C@@H]1CN(C2(C(=O)N[C@H](CO)C3CCCCC3)Cc3ccc(NC(=O)[C@@H](NC(=O)c4ccnn4C)C4CCCCC4)cc3C2)C(=O)N1 (stereo partly drawn) [Example 121, N-((1S)-1-cyclohexyl-2-((2-(((S)-1-cyclohexyl-2-hydroxyethyl)carbamoyl)-2-((R)-4-isopropyl-2-oxoimidazolidin-1-yl)-2,3-dihydro-1H-inden-5-yl)amino)-2-oxoethyl)-1-methyl-1H-pyrazole-5-carboxamide] | 16 | 32.3
Cn1nccc1C(=O)N[C@H](C(=O)Nc1ccc2c(c1)CC(C(=O)NC13CC(C1)C3)(N1CC3(CC3)CNC1=O)C2)C1CCCCC1 (stereo partly drawn) [Example 182, N-((1S)-2-((2-(bicyclo[1.1.1]pentan-1-ylcarbamoyl)-2-(6-oxo-5,7-diazaspiro[2.5]octan-5-yl)-2,3-dihydro-1H-inden-5-yl)amino)-1-cyclohexyl-2-oxoethyl)-1-methyl-1H-pyrazole-5-carboxamide] | 26.9 | 52.9
CNC(=O)C1(N2CC3(CC3)CNC2=O)Cc2ccc(NC(=O)[C@@H](NC(=O)c3c(F)cnn3C)C3CCCCC3)cc2C1 (stereo partly drawn) [Example 167, N-((1S)-1-cyclohexyl-2-((2-(methylcarbamoyl)-2-(6-oxo-5,7-diazaspiro[2.5]octan-5-yl)-2,3-dihydro-1H-inden-5-yl)amino)-2-oxoethyl)-4-fluoro-1-methyl-1H-pyrazole-5-carboxamide] | 127 | 220
CC#CCC1CN(C2(C(=O)NC)Cc3ccc(NC(=O)[C@@H](NC(=O)c4ccnn4C)C4CCCCC4)cc3C2)C(=O)N1 (stereo partly drawn) [Example 106, N-((1S)-2-((2-(4-(but-2-yn-1-yl)-2-oxoimidazolidin-1-yl)-2-(methylcarbamoyl)-2,3-dihydro-1H-inden-5-yl)amino)-1-cyclohexyl-2-oxoethyl)-1-methyl-1H-pyrazole-5-carboxamide] | 48 | 202
CNC(=O)C1(N2C[C@@H](C(C)C)NC2=O)Cc2ccc(NC(=O)C(NC(=O)c3ccnn3C)C3CCc4ccc(Cl)cc4C3)cc2C1 (stereo partly drawn) [Example 196, N-(1-(7-chloro-1,2,3,4-tetrahydronaphthalen-2-yl)-2-((2-((R)-4-isopropyl-2-oxoimidazolidin-1-yl)-2-(methylcarbamoyl)-2,3-dihydro-1H-inden-5-yl)amino)-2-oxoethyl)-1-methyl-1H-pyrazole-5-carboxamide] | 19.8 | 58.5
CNC(=O)C1(N2C[C@@H](Cc3ccc(OC)cc3)NC2=O)Cc2ccc(NC(=O)[C@@H](NC(=O)c3ccnn3C)C3CCCCC3)cc2C1 (stereo partly drawn) [Example 56, N-((1S)-1-cyclohexyl-2-((2-((R)-4-(4-methoxybenzyl)-2-oxoimidazolidin-1-yl)-2-(methylcarbamoyl)-2,3-dihydro-1H-inden-5-yl)amino)-2-oxoethyl)-1-methyl-1H-pyrazole-5-carboxamide] | 20 | 23.7
CNC(=O)C1(N2CC3(CC3)CNC2=O)Cc2ccc(NC(=O)C(NC(=O)c3ccnn3C)C3CCC(CC(F)(F)F)CC3)cc2C1 (stereo not shown) [Example 168, 1-methyl-N-(2-((2-(methylcarbamoyl)-2-(6-oxo-5,7-diazaspiro[2.5]octan-5-yl)-2,3-dihydro-1H-inden-5-yl)amino)-2-oxo-1-(4-(2,2,2-trifluoroethyl)cyclohexyl)ethyl)-1H-pyrazole-5-carboxamide] | 32.8 | 60.5
CNC(=O)C1(N2CC(C)NC2=O)Cc2cc3nc([C@@H](NC(=O)c4nonc4C)C4CCCCC4)[nH]c3cc2C1 (stereo partly drawn) [Example 14, N-((1S)-cyclohexyl(6-(4-methyl-2-oxoimidazolidin-1-yl)-6-(methylcarbamoyl)-1,5,6,7-tetrahydroindeno[5,6-d]imidazol-2-yl)methyl)-4-methyl-1,2,5-oxadiazole-3-carboxamide] | 150 | 300
Cc1nonc1C(=O)N[C@H](C(=O)Nc1ccc2c(c1)CC(C1CCCC1)(N1CC3(CC3)CNC1=O)C2)C(C1CC1)C1CC1 (stereo partly drawn) [Example 230, N-((2S)-1-((2-cyclopentyl-2-(6-oxo-5,7-diazaspiro[2.5]octan-5-yl)-2,3-dihydro-1H-inden-5-yl)amino)-3,3-dicyclopropyl-1-oxopropan-2-yl)-4-methyl-1,2,5-oxadiazole-3-carboxamide] | 4460 | 9470
Cc1nonc1C(=O)N[C@H](C(=O)Nc1ccc2c(c1)CC(c1nc3cccc(F)c3[nH]1)(N1CC3(CC3)CNC1=O)C2)C1CCC(F)(F)CC1 (stereo partly drawn) [Example 187, N-((1S)-1-(4,4-difluorocyclohexyl)-2-((2-(7-fluoro-1H-benzo[d]imidazol-2-yl)-2-(6-oxo-5,7-diazaspiro[2.5]octan-5-yl)-2,3-dihydro-1H-inden-5-yl)amino)-2-oxoethyl)-4-methyl-1,2,5-oxadiazole-3-carboxamide] | 249 | 246
CNC(=O)C1(N2CC3(CC3)CNC2=O)Cc2ccc(NC(=O)C(NC(=O)c3ccnn3C)C3CCC(C(F)(F)F)CC3)cc2C1 (stereo not shown) [Example 164, 1-methyl-N-(2-((2-(methylcarbamoyl)-2-(6-oxo-5,7-diazaspiro[2.5]octan-5-yl)-2,3-dihydro-1H-inden-5-yl)amino)-2-oxo-1-(4-(trifluoromethyl)cyclohexyl)ethyl)-1H-pyrazole-5-carboxamide] | 35.2 | 112
Cc1nonc1C(=O)N[C@H](C(=O)Nc1ccc2c(c1)CC(C(=O)Nc1ccccc1)(N1C[C@@H](C(C)C)NC1=O)C2)C(C1CC1)C1CC1 (stereo partly drawn) [Example 234, N-((2S)-1,1-dicyclopropyl-3-((2-((R)-4-isopropyl-2-oxoimidazolidin-1-yl)-2-(phenylcarbamoyl)-2,3-dihydro-1H-inden-5-yl)amino)-3-oxopropan-2-yl)-4-methyl-1,2,5-oxadiazole-3-carboxamide] | 340 | 207
Cc1nonc1C(=O)N[C@H](C(=O)Nc1ccc2c(c1)CC(C(=O)Nc1cc(F)ccc1Cl)(N1C[C@@H](C(C)C)NC1=O)C2)C(C1CC1)C1CC1 (stereo partly drawn) [Example 278, N-((2S)-1-((2-((2-chloro-5-fluorophenyl)carbamoyl)-2-((R)-4-isopropyl-2-oxoimidazolidin-1-yl)-2,3-dihydro-1H-inden-5-yl)amino)-3,3-dicyclopropyl-1-oxopropan-2-yl)-4-methyl-1,2,5-oxadiazole-3-carboxamide] | 333 | 122
Cc1ccc(NC(=O)C2(N3CC4(CC4)CNC3=O)Cc3ccc(NC(=O)[C@@H](NC(=O)c4nonc4C)C4CCC(F)(F)CC4)cc3C2)cc1 (stereo partly drawn) [Example 221, N-((1S)-1-(4,4-difluorocyclohexyl)-2-oxo-2-((2-(6-oxo-5,7-diazaspiro[2.5]octan-5-yl)-2-(p-tolylcarbamoyl)-2,3-dihydro-1H-inden-5-yl)amino)ethyl)-4-methyl-1,2,5-oxadiazole-3-carboxamide] | 47.8 | 111
CC(C)[C@@H]1CN(C2(c3nc4ccccc4[nH]3)Cc3ccc(NC(=O)[C@@H](NC(=O)c4ccnn4C)C4CCCCC4)cc3C2)C(=O)N1 (stereo partly drawn) [Example 169, N-((1S)-2-((2-(1H-benzo[d]imidazol-2-yl)-2-((R)-4-isopropyl-2-oxoimidazolidin-1-yl)-2,3-dihydro-1H-inden-5-yl)amino)-1-cyclohexyl-2-oxoethyl)-1-methyl-1H-pyrazole-5-carboxamide] | 56.4 | 65.2
